Patent publication US20110034419A1, “Cardioprotective Drugs and Diagnostics for Assessing Risk of Cardiovascular Disease” (priority 2009, published 2011)

How the values were obtained:
[1] = test system: endothelial cell monolayers (HUVECs); assay: Electrical Cell Substrate Impedance Sensing (ECIS) assay of transendothelial electrical resistance (TEER); type: cell-based, human; conditions: for Inhibition of the TEER response to HDL / Inhibition of the TEER response to S1P: PTX 1 μg/ml, antagonists 10 μM; for Inhibition of the TEER response to HDL: HDL 1000 or 621 μg/ml; for Inhibition of the TEER response to S1P: S1P 833 nM or 250 nM
Protocol: Confluent endothelial monolayers were grown under serum-free conditions until a minimal TEER plateau had been reached. The cells were then incubated with S1P or HDL in the presence or absence of PTX (A and B) or S1P1 antagonists (C and D). In A and B, S1P was used at 833 nM, HDL at 1000 μg/ml (containing 400 nM S1P) and PTX at 1 μg/ml. In C and D, S1P was used at 250 nM, HDL at 621 μg/ml (containing 250 nM S1P), the S1P1 antagonist 857390 at 10 μM and the S1P1/S1P3 antagonist VPC23019 at 10 μM. As controls, monolayers were treated with BSA-containing serum free medium (SFM) plus or minus vehicle buffer. Each of the TEER tracings shown is an average of two replicate wells and representative of three independent experiments. Impedance values were normalized by dividing each value by the level of impedance measured just prior to the addition of effectors. […]
ECIS: Electrical cell substrate impedance sensing (ECIS) assays will be conducted essentially as described in (1). Briefly, 8W10E+ electrode arrays will be pre-coated with human fibronectin (Invitrogen, Carlsbad, Calif.) at 100 μg/ml in 0.15M NaCl, 0.01M Tris, pH 8.0. HUVECs in EGM-2 medium will be seeded into the wells at a density of 1×10^5 cells per well. Electrical resistance (impedance) will be measured every […] at a frequency of 15 kHz. For every 48 h of culture, 50% volume of medium will be replaced with fresh EGM-2. When the electrical resistance reaches a maximal plateau (−3 days) the medium will be replaced with serum-free endothelial basal medium (EBM; Lonza) containing 1× penicillin-streptomycin-glutamine (Invitrogen). Electrical resistance will be monitored until a minimal plateau is reached (˜24 h). Either HDL from CCHS subjects (depleted of albumin and apoB lipoproteins) or synthetic HDLs will be introduced into the culture medium by removing a volume corresponding to that of the HDL to be added. The maximum volume of each HDL added will not exceed 1/25 of the 400 μl volume of conditioned culture medium in each well. For experiments evaluating the effects of pertussis toxin (PTX), PTX (100 ng/ml) or the PTX buffer (50% glycerol with 50 mM Tris, 10 mM glycine, and 0.5M NaCl, pH 7.5) will be added to EBM during the final 12 h of serum starvation. S1P or HDL will then be added to the medium. Electrical resistance will be monitored through 5 h post addition of agents.

[2] = test system: Erk1/2 activation in HUVECs; assay: Multiplex bead array assay of Erk1/2 phosphorylation; type: cell-based, human; conditions: for Inhibition of HDL-induced activation of Erk1/2 / Inhibition of S1P-induced activation of Erk1/2: PTX 100 ng/ml 12 h, 3 min; for Inhibition of HDL-induced activation of Erk1/2: antagonists added 15 min before HDL (containing 200 nM S1P); for Inhibition of S1P-induced activation of Erk1/2: antagonists added 15 min before S1P (200 nM)
Protocol: (§1) The effect of S1P and HDL on activation of Erk1/2 (A-D) and Akt (E-H) in HUVECs was determined by multiplex bead array assay. In A-D, the values for the fold difference in Erk1/2 phosphorylation were derived from the level of phosphoErk1/2 fluorescence in S1P or HDL treated cells divided by the level of phosphoErk1/2 fluorescence in control cells. In E-G, the values for the fold increase in Akt phosphorylation were derived from the level of phosphoAkt fluorescence in cells treated with S1P or HDL divided by the level of phosphoAkt fluorescence measured in control cells. The data depicted in panels A, C, E and G is based on treating HUVECs for the indicated times with 833 nM S1P or 333 μg/ml HDL (containing 133 nM S1P). The data depicted in panels B, D, F and H is based on treating HUVECs with indicated concentrations of S1P or HDL for 3 min. The level of S1P in the 3-fold dilutions of HDL tested in panel H ranged from 12-337 nM. Data are shown from a representative experiment.
(§2) In A and B, pertussis toxin (PTX, 100 ng/ml) or the PTX buffer was added to endothelial cell basal medium (EBM) during the final 12 h of serum starvation. BSA, S1P (200 nM) or HDL (containing 200 nM S1P) were then added to the medium and allowed to incubate with the cells for 3 min. In C and D, the S1P1 antagonist 857390 or the S1P1/S1P3 antagonist or vehicle were added to the medium 15 min prior to addition of S1P or HDL and allowed to incubate with the cells for 3 min. The graphed values were derived from the level of phosphoErk1/2 or phosphoAkt fluorescence in S1P- or HDL-treated cells divided by the level of phosphoErk1/2 or phosphoAkt fluorescence in BSA treated cells. Data are shown from representative experiments, antagonists and inhibitor experiments were performed 2-4 times (e.g. PTX, n=3; S1P1 antagonist, n=4; S1P1/S1P3 antagonist, n=2). Each data point is an average from two independent wells.
(§3) Approach: A bead-based multiplex assay will be used to determine changes in phosphorylated Erk1/2, phosphorylated Akt, and total Erk and total Akt in endothelial cells in response to treatments with HDLs from dislipidemic subjects and synthetic HDLs containing defined amounts of S1P. These assays will be conducted essentially as described by (1). Briefly, HUVECs will be seeded into 24 well dishes (Corning) at 2×10^5 cells per well and grown for 18 h in endothelial growth medium-2 (EGM-2, Lonza). The medium will then be replaced with endothelial basal medium (EBM) containing 0.1% FBS and the cells grown for 24 h. The medium will then be supplemented with HDL samples (i.e., CCHS subject serum-derived HDL freed of albumin- and apoB-containing lipoproteins) or synthetic HDLs (containing defined amounts of S1P). As described above, this will be done by removing a volume of the conditioned culture medium corresponding to that of the HDL to be added. The cells will be extracted with Bio-Plex cell lysis buffer (Bio-Rad, Hercules, Calif.) and protein concentration determined by Bio-Rad DC Protein Assay (Bio-Rad). Levels of phospho-Erk1/2, total-Erk1/2 and phospho-Akt in the extracts will be determined by multiplex bead assay using kits (Bio-Rad) and a Bioplex-200 instrument (Bio-Rad).

Akt activation in HUVECs = assay: Multiplex bead array assay of Akt phosphorylation; type: cell-based, human; conditions: PTX 100 ng/ml 12 h, 3 min; for Inhibition of HDL-induced activation of Akt: antagonists added 15 min before HDL (containing 200 nM S1P); for Inhibition of S1P-induced activation of Akt: antagonists added 15 min before S1P (200 nM)
Protocol: as §1, §2
as §3, with “The medium will then be replaced with endothelial basal medium (EBM) containing 0.1% FBS and the cells grown for 24 h. The medium will then be supplemented with HDL samples (i.e., CCHS subject serum-derived HDL freed of albumin- and apoB-containing lipoproteins) or synthetic HDLs (containing defined amounts of S1P). As described above, this will be done by removing a volume of the conditioned culture medium corresponding to that of the HDL to be added.” left out

dermal fibroblasts = conditions: literature (Bu et al., 2006); cited from earlier work
lung capillary leakage = conditions: mice, lipopolysaccharide treatment; literature (Peng et al.); cited from earlier work
[3] = test system: endothelial cell monolayers (HUVECs); conditions: literature (Schaphorst et al.; Xu et al.); cited from earlier work

CCCCCCCCc1cccc(NC(=O)[C@H](N)COP(=O)(O)O)c1 [VPC23019]
Inhibition of the TEER response to HDL [1]: inhibited | Inhibition of the TEER response to S1P [1]: inhibited | Inhibition of HDL-induced activation of Erk1/2 [2]: inhibited | Inhibition of S1P-induced activation of Erk1/2 [2]: inhibited | Inhibition of HDL-induced activation of Akt (Akt activation in HUVECs): inhibited | Inhibition of S1P-induced activation of Akt (Akt activation in HUVECs): inhibited

CCCCCCCCCCCCCCC[C@@H](O)[C@@H](N)COP(=O)(O)O [DH-S1P, dihydro-S1P]
Activation of ERK1/2 in dermal fibroblasts (dermal fibroblasts): mediate activation ERK1/2 | Induction of MMP1 expression in dermal fibroblasts (dermal fibroblasts): induction of matrix metalloproteinase 1 (MMP1) expression

pertussis toxin [PTX]
Inhibition of the TEER response to HDL [1]: completely abrogated | Inhibition of the TEER response to S1P [1]: inhibited | Inhibition of HDL-induced activation of Erk1/2 [2]: inhibited | Inhibition of S1P-induced activation of Erk1/2 [2]: inhibited | Inhibition of HDL-induced activation of Akt (Akt activation in HUVECs): inhibited | Inhibition of S1P-induced activation of Akt (Akt activation in HUVECs): inhibited

CCCCCCCCCCCCC/C=C/[C@@H](O)[C@@H](N)COP(=O)(O)O [S1P, sphingosine 1-phosphate]
Effect on lung capillary leakage (lung capillary leakage): greatly reduces lung capillary leakage | Effect on transendothelial electrical resistance (TEER) ([1]; confluent endothelial monolayers in serum free medium, substance added alone): dose-dependent increase in TEER | Activation of ERK1/2 in dermal fibroblasts (dermal fibroblasts): not reproduced | Induction of MMP1 expression in dermal fibroblasts (dermal fibroblasts): not reproduced | Effect on endothelial barrier activity (TEER) in cultured endothelial cells [3]: increase endothelial barrier activity | Effect on Erk1/2 phosphorylation ([2]; 833 nM S1P or 333 μg/ml HDL, time course): transient increase in Erk1/2 phosphorylation | Dose dependence of Erk1/2 activation response ([2]; 3 min treatment): dose dependent
